Peptide text beside a SMILES is read from it. * marks the point of attachment. Cbz = O=C(OCc1ccccc1)*
What was measured:
[1] = system: Htt or mtHtt protein in HdhQ7 and HdhQ111 cells; assay: Htt/mtHtt protein level (western blot); assay type: cell-based, mouse; conditions: 16 h, n = 3
Experimental: Protein concentrations were determined by Bradford assay. Protein was resuspended in Laemmli buffer, loaded on SDS–PAGE, and transferred onto nitrocellulose membranes. Membranes were probed with the indicated antibodies, followed by visualization with ECL. Representative blots have been cropped for presentation. Images of full-size blots are presented in Supplementary Fig. 9.
Supplementary Figure 3: Htt and mtHtt are not substrates of VCP . Left: HdhQ7 and HdhQ111 cells were treated with MG132 (10 µM for 16 hours). Protein levels of Htt were determined in the total lysates of the cells. Actin was used as a loading control. The representative blots were from three independent experiments. Right: HdhQ7 and HdhQ111 were treated with Eer I (Eeyarestatin I, 5μ M for 16 hours). Protein levels of Htt were determined. Mcl-1, a mitochondrial Bcl-2 family protein, was used as a positive control. Mcl-1 has been reported to be a substrate of VCP on mitochondria and it is degraded via the ubiquitin-proteasome system. The representative blots were from three independent […]
(1 picture or pasted object on this page, not shown here)

VCP = conditions: cited from earlier work
Source text: We next ask what specific function VCP mediates on mitochondria from HD models. VCP knock-out is lethal in mice[34].

[2] = system: HdhQ111 / HdhQ7 mouse striatal cells; assay: Mitochondrial membrane potential (TMRM), mouse striatal cells; assay type: cell-based; conditions: HdhQ111 cells, VCP siRNA, three days
Experimental: (§1) Immortalized striatal cell lines HdhQ111 mutant and HdhQ7 wt cells were obtained from the CHDI Foundation. Cells were cultured in DMEM supplemented with 10% FBS, 100 μg/ml penicillin, 100 μg ml^−1 streptomycin, and 400 μg ml^−1 G418. Cells were grown at 33 °C in a 5% CO2 incubator. Cells within 14 passages were used in all experiments.
(§2) For silencing Htt and VCP in HD striatal cells, control siRNA, mouse Htt and mouse VCP siRNA were purchased from Thermo Fisher Scientific. HdhQ7 and HdhQ111 cells were transfected either with control siRNA, or Htt or VCP siRNA using TransIT-TKO Transfection Reagent (Mirus Bio, LLC), according to the manufacturer's instructions. The sequences for the siRNAs used in this study are as follows: mouse Htt, 5′-[…]-3′; Mouse VCP, 5′-GAGAGCAACCUUCGUAAG-3′; control non-targeting siRNA, 5′-TTCTCCGAACGTGTCACGT-3′.
To determine mitochondrial mass in cultures, cells were stained with antibodies against Tom20 or stained with Mitotracker green. The fluorescent density of Tom20 (1:500) or mitotracker green was quantitated using NIH Image J software. To measure the membrane potential of mitochondria in cultures, cells were incubated with 0.25 μM tetra-methyl rhodamine (Invitrogen Life Science) for 20 min at 37 °C. To determine lysosomal activity, cells were incubated with Lyso-ID Red dye (Enzo Life Science) for 30 min at 37 °C. The images were visualized by microscope and quantitation of the density of red fluorescence was carried out using NIH ImageJ software. For immunocytochemistry study, at least 100 cells per group were counted and quantitated by an observer blind to experimental conditions.

[3] = system: HdhQ111 mouse striatal cells; assay: Mitochondria-associated LC3 II level; assay type: cell-based; conditions: VCP siRNA, 48 h
Source text: as §2
Cells were washed with cold PBS and incubated on ice for 30 min in a lysis buffer (250 mM sucrose, 20 mM HEPES-NaOH, pH 7.5, 10 mM KCl, 1.5 mM MgCl2, 1 mM EDTA, protease inhibitor cocktail and phosphatase inhibitor cocktail). Mouse brains were minced and homogenized in the lysis buffer and then placed on ice for 30 min. Collected cells or tissue were disrupted 20 times by repeated aspiration through a 25-gauge needle, followed by a 30-gauge needle. The homogenates were spun at 800 g for 10 min at 4 °C, and the resulting supernatants were spun at 10,000 g for 20 min at 4 °C. The pellets were washed with lysis buffer and spun at 10,000 g again for 20 min at 4 °C. The final pellets were suspended in lysis buffer containing 1% Triton X-100 and were mitochondrial-rich lysate fractions. […]
(§3) Protein concentrations were determined by Bradford assay. […]

[4] = system: HdhQ111 / HdhQ7 mouse striatal cells; assay: VCP mitochondrial level, mouse striatal cells (western blot); assay type: cell-based; conditions: HdhQ111 cells, Htt siRNA, 3 days
Experimental: as §1, §2
Cells were washed with cold PBS and incubated on ice for 30 min in a lysis buffer (250 mM sucrose, 20 mM HEPES-NaOH, pH 7.5, 10 mM KCl, 1.5 mM MgCl2, 1 mM EDTA, protease inhibitor cocktail and phosphatase inhibitor cocktail). Mouse brains were minced and homogenized in the lysis buffer and then placed on ice for 30 min. Collected cells or tissue were disrupted 20 times by repeated aspiration through a 25-gauge needle, followed by a 30-gauge needle. The homogenates were spun at 800 g for 10 min at 4 °C, and the resulting supernatants were spun at 10,000 g for 20 min at 4 °C. The pellets were washed with lysis buffer and spun at 10,000 g again for 20 min at 4 °C. The final pellets were suspended in lysis buffer containing 1% Triton X-100 and were mitochondrial-rich lysate fractions. The supernatant was centrifuged at 100,000 g, 4 °C, for 1 h, the pellets were suspended in lysis buffer containing 1% Triton X-100 as ER fractions. The final supernatant was cytosolic fractions. The mitochondrial proteins VDAC, the ER protein WFS1 and the cytosolic protein Enolase were used as loading controls for mitochondrial, ER and cytosolic fractions, respectively.
as §3

CC1(C)C(N(O)C(=O)Nc2ccc(Cl)cc2)N(c2ccc(Cl)cc2)C(=O)N1CC(=O)N/N=C/C=C/c1ccc([N+](=O)[O-])o1 (stereo not drawn) [Eeyarestatin I]
Htt or mtHtt protein levels ([1]; Eeyarestatin I 5 μM): did not affect Htt or mtHtt protein levels | cell death (VCP): rapidly lead to cell death | specificity (VCP): non-specific

c1ccc(CNc2nc(NCc3ccccc3)c3ccccc3n2)cc1 [N2,N4-dibenzylquinazoline-2,4-diamine]
cell death (VCP): rapidly lead to cell death | specificity (VCP): non-specific

5′-GAGAGCAACCUUCGUAAG-3′ [VCP siRNA, reference compound]
mitochondrial membrane potential [2]: similarly promoted the MMP | mitochondria-associated LC3 II [3]: reduced the levels of mitochondria-associated LC3 II

CC(C)C[C@@H](C=O)NC(=O)[C@H](CC(C)C)NC(=O)[C@H](CC(C)C)NC(=O)OCc1ccccc1 [MG132] (Cbz-Leu-Leu-Leu-aldehyde)
Htt or mtHtt protein levels ([1]; MG132 10 µM): did not affect Htt or mtHtt protein levels

5′-GGUUUAUGAACUGACUUUGTT-3′ [Htt siRNA, reference compound]
VCP translocation to mitochondria [4]: abolished VCP translocation to mitochondria
